# In PMC12405493, “Selective ubiquitination of drug-like small molecules by the ubiquitin ligase HUWE1” (Nature Communications, 2025):
# What was measured:
# HEK293T cells = experiment: LC/MS/MS detection of ubiquitinated compound from cell lysates (Ub pull-down); type: cell-based, human; conditions: 15 μM, 1 h
# Experimental: Samples for LC/MS/MS analyses of the ubiquitinated inhibitors from reconstituted HUWE1^FL-driven reactions were prepared by in-solution trypsin (Mass Spec Grade, Promega) digestion, instead of the gel-based LysC digestion procedure described above. […] In both cases, the samples were reduced and alkylated with 10 mM TCEP and 20 mM iodoacetamide at 37 °C in the dark for 60 min. An equal mixture of Sera-Mag SpeedBeads with hydrophilic and hydrophobic surfaces (GE Healthcare; 1:1 mix (v/v)) was washed twice with water and added to the sample at 50:1(w/w) resin-to-protein ratio. […] The resulting peptides were then dried, dissolved in 5% ACN/0.1% FA (both v/v), and measured on a hybrid quadruple-Obitrap Exploris480 mass spectrometer (Thermo Fisher Scientific) coupled to an Ultimate 3000 UHPLC system (Thermo Fisher Scientific). […]
# Sample preparation for LC/MS/MS detection of ubiquitinated compounds from cell lysates was performed according to the following workflow: HEK293T cells at 70% confluency were treated with 15 μM BI8626 or an equal volume of DMSO for 1 h. […] After 20 min incubation on a rotating wheel at 4 °C, the lysate was cleared by centrifugation, the total protein concentrations determined, and the sample (2.3 mg) diluted with 10 mM Tris (pH 7.5), 150 mM NaCl and 0.5 mM EDTA to a final volume of 1 mL. […]
# [1] = target: T1, vinylthioether-linked HUWE1^HECT-Ub complex (Homo sapiens, UniProt Q7Z6Z7); experiment: Isothermal titration calorimetry (ITC) with HUWE1^HECT~Ub proxy; type: binding; conditions: 25 °C
# T1 construct: The preparation of the vinylthioether-linked HUWE1^HECT-Ub complex was also previously described; made in house; host or cells: bacteria (components)
# Experimental: (§1) ITC was performed with an ITC200 calorimeter (MicroCal) at 25 °C. The proteins were dialyzed into 20 mM HEPES (pH 7.5), 150 mM NaCl, and 1 mM β-mercaptoethanol (β-ME) overnight. 600 μM HUWE1^HECT or HUWE1^HECT-Ub were applied to the cell and a 10-fold molar excess of BI8626 to the syringe (and vice versa). The reference cell was filled with buffer. Titration experiments included 1 injection of 1.5 μL, followed by 15 injections of 2.4 μL in 3-s intervals, with 150-s spacings between individual injections. The reference power was set to 12 μcal s^−1 and the stirring speed to 270 rpm. To control for instrument functionality, 5 mM CaCl2 were titrated into 0.4 mM EDTA in 10 mM MES (pH 5.6). Data were plotted with OriginPro v.2020b (OriginLab).
# HUWE1^HECT = target: T2, HUWE1^HECT (Homo sapiens, UniProt Q7Z6Z7); experiment: Isothermal titration calorimetry (ITC) with HUWE1^HECT; type: binding; conditions: 25 °C
# T2 construct: the isolated HECT domain of HUWE1 (HUWE1^HECT); made in house
# T2 sequence (Q7Z6Z7 4038-4374 limits assumed): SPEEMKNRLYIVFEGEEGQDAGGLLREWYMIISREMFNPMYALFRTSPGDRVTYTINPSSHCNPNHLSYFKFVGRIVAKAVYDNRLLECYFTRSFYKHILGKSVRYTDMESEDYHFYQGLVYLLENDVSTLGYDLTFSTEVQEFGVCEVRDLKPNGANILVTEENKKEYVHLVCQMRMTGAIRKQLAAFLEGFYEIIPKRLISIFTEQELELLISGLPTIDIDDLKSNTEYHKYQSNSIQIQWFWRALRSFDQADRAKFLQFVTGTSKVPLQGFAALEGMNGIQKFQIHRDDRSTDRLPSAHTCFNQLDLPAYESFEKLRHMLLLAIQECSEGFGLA
# Experimental: as §1
structure (smiles),measurement,setting,value
NCc1cccc(CNc2ncnc3c(N4CCN(Cc5ccccc5)CC4)ncnc23)c1 [BI8626],Compound ubiquitination in cells (targeted MS/MS after Ub pull-down),HEK293T cells,indeed ubiquitinated in cells
same,Interaction with the HUWE1^HECT~Ub proxy by ITC,[1],No binding was detected
same,Interaction with HUWE1^HECT by ITC,HUWE1^HECT,No binding was detected
